Literature values as cited in patent US10004757B1, “Oral supplement” (Nutri Vida, LLC, priority 2017, dated 2018).

Conditions: taken over the daily recommended amount

O=C(O)c1cccnc1 [Niacin, nicotinic acid]
decrease in triglycerides: 30%
